Laboratory results as given in patent publication US12285501B2, “Compound targeting norepinephrine transporter” (priority 2019, dated 2025).

Key:
[1] = molecular target: T1, NET (Homo sapiens, UniProt P23975); experiment: Competitive inhibition of 131I-MIBG uptake in SK-N-SH cells expressing NET; assay type: cell-based; settings: for IC50: non-radioactive compounds, percent of control MIBG uptake
T1 construct: SK-N-SH cells expressing NET; host or cells: SK-N-SH
Description: (§1) SK-N-SH cells expressing NET were cultivated according to the instructions from the supplier (Sigma-Aldrich Chemie GmbH, Munich, Germany). The cells were transferred to a 12 well plate and incubated in 1 mL EMEM while reaching 2×10^5 cells/well density the day for testing. The medium was removed, and the cells were washed with 1 mL EMEM. A solution of ^18F-AF78 (3.7 kBq) in EMEM (700 μL) was added to each well with or without inhibitors (NE, MHPG, cold AF78 each with a final concentration 100 nM, 1 μM, 10 μM and 100 μM, respectively; Desipramine 10 μM). The plate was incubated for 60 min at 37° C. The cells were washed with ice-cold PBS buffer (1 mL×2) in order to remove unbound tracer. NaOH solution (0.1 N, 500 μL) was added to each well followed by the collection of cell pellet and the measurement in γ-counter (FH412, Frieseke & Höpfner, Erlangen, Germany) using differential energy windows (±20%) for ^18F and ^131I.
[drawing 27] were synthesized. The compounds were tested in SK-N-SH cells expressing NET in order to evaluate their competitive binding affinity against ^131I-MIBG. […] Results are expressed as percent of control MIBG uptake. […] (IC50 of AF78 vs. MHPG p value<0.01)
NE and cold MIBG were used as references. As a result, cold reference 2 (AF78) could inhibit the cell uptake of ^131I-MIBG in a concentration-dependent manner. In contrast, cold reference 1 was not able to block the uptake of ^131I-MIBG even at the highest concentration tested. Inhibition was only 40% at 100 μM. […] The introduction of long alkyl chain at 3-position on the benzene ring seems not to be tolerated, whereas introduction at the 4-position seems to be well tolerated.

[2] = time frame of 50-60 min imaging; Raffel et al., J. Nucl. Med. 2017; cited from earlier work
[3] = molecular target: T1, NET; experiment: Competitive inhibition of 18F-AF78 uptake in SK-N-SH cells; assay type: cell-based; settings: percentage of control AF78 uptake
Description: as §1
To further confirm the tracer's binding affinity, ^18F-labeled AF78 was used in competitive inhibition assay, to which different concentrations of NE, MHPG, and cold reference 2 (AF78) were added. […] Results are expressed as percentage of control AF78 uptake. […] (IC50 of MHPG vs. AF78, p value<0.05). […]

[4] = test system: NET; experiment: Kinetic study in monkeys' hearts (DMI blocking, DMI chase, tyramine chase); assay type: in vivo, monkey
From the text: A kinetic study has been performed with ^18F-AF78 in monkeys' hearts. The results confirmed the specific uptake of ^18F-AF78 via NET and stable vesicular storage mechanism in the sympathetic nerve terminals. […] Furthermore, a continuous tyramine (TYR) chase was applied after tracer administration. Tyramine is known as agent causing a catecholamine release thus enhancing tracer washout. […] Decrease was statistically significant (p<0.005) compared to control group (FIG. 18, lower panel).

[5] = molecular target: T2, NET (Rattus norvegicus, UniProt Q63380); experiment: Ex vivo autoradiography of left ventricular short axis slices; assay type: in vivo
T2 construct: tissue Japan SLC, Inc., Japan (animals); host or cells: heart (myocardium) of healthy male Wistar rats, in vivo
T2 sequence (Q63380 1-617): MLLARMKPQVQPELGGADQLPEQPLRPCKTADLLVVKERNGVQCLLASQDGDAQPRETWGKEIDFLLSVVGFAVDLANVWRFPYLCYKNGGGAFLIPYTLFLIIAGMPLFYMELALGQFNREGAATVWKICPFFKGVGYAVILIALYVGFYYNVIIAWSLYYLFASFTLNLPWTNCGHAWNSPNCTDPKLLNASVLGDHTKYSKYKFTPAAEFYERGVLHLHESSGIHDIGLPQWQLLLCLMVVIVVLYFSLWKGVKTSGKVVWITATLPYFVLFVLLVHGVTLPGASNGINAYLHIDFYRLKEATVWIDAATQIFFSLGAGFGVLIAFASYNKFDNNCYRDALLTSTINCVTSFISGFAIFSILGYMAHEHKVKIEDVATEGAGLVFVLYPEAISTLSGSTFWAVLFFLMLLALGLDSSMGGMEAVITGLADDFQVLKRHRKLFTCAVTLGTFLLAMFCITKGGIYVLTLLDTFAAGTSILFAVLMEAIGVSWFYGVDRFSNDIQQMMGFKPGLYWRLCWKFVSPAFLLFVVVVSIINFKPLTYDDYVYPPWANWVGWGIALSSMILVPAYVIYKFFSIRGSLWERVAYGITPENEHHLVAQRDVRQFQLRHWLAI
Description: Standard protocols and data analysis methods for non-invasive PET imaging of small animals have been established in the working group of the inventors (Rischpler C. et al., Eur J Nucl Med Mol Imaging. 2013; 40(7): 1077-83). Healthy male Wistar rats (Japan SLC, Inc., Japan) each weighing 200-250 g were used. The rats are anaesthetized with 2% isoflurane. 10-20 MBq of the tracer was administered via tail vein injection. Ten minutes after the tracer administration, the animals were immediately euthanized. Hearts, livers and blood were obtained for ex vivo analysis with autoradiography (Typhoon FLA 7000) and tissue counts with γ-counter (1480 WIZARD™ 3″). Following weight and decay correction of tissue counts, the heart to blood (H/B) and heart to liver (H/L) count ratio were calculated, respectively. For autoradiography, the rats were first injected via tail vein either with or without (control) NET blocker phenoxynezamine 50 mg/kg after anaesthesia. After 10 min, the tracer (10-20 MBq) was administered. The hearts were harvested 10 min later, frozen, and cut into 20 μm short axis slices using a cryostat (Cryotome FSE, Thermo Fisher Scientific). […]

[6] = molecular target: T2, NET; experiment: Cardiac PET imaging in healthy rats with and without NET blockade; assay type: in vivo
From the text: Rats were maintained anaesthetized during the whole experiment by 2% isoflurane. All scans were obtained using a dedicated small-animal PET system (microPET FOCUS 120, SIEMENS, Germany). The PET imaging protocol was designed to assess the systemic and myocardial tracer distribution of ^18F-AF78. Shortly before the injection of 10-20 MBq of ^18F-AF78 via the tail vein, a dynamic PET scan was initiated. In order to evaluate the cardiac uptake mechanism of the tracer, rats were pretreated with phenoxybenzamine (50 mg/kg intravenously, Sigma-Aldrich, Tokyo, Japan). Ten minutes after the pretreatment, 10-20 MBq of ^18F-AF78 was administered via the tail vein. A 10 min dynamic PET session was started shortly before the tracer injection. PET image was acquired in list-mode format. The data were sorted into 3-dimensional sonograms, which were then rebind with a Fourier algorithm to reconstruct dynamic images using a 2-dimensional ordered-subset expectation maximization (OSEM) algorithm. All images were corrected for ^18F decay, random, and dead time; correction for attenuation was not performed (Higuchi JNM 2013). The obtained PET images were analyzed with the public domain tool AMIDE imaging software (A Medical Imaging Data Examiner, version 1.01). […]

[7] = Static PET images of cardiac uptake in several species; assay type: in vivo; settings: healthy rats, rabbits, pigs and monkeys
[8] = molecular target: T1, NET; experiment: Tracer cell uptake in SK-N-SH cells with and without NET inhibitor desipramine (DMI); assay type: cell-based; settings: desipramine 10 μM, 60 min at 37° C.
Description: as §1
After successful radiolabeling, ^18F-AF78 was also tested in SK-N-SH cells in order to check cell uptake. Antidepressant desipramine (DMI) was used as the inhibitor of NET. The addition of DMI blocks cell uptake of tracers specifically transported by NET.

[9] = molecular target: T2, NET; experiment: Ex vivo tissue counting study (heart/tissue distribution ratio) with and without NET blockade; assay type: in vivo; settings: rats
Description: Standard protocols and data analysis methods for non-invasive PET imaging of small animals have been established in the working group of the inventors (Rischpler C. et al., Eur J Nucl Med Mol Imaging. 2013; 40(7): 1077-83). Healthy male Wistar rats (Japan SLC, Inc., Japan) each weighing 200-250 g were used. The rats are anaesthetized with 2% isoflurane. 10-20 MBq of the tracer was administered via tail vein injection. Ten minutes after the tracer administration, the animals were immediately euthanized. Hearts, livers and blood were obtained for ex vivo analysis with autoradiography (Typhoon FLA 7000) and tissue counts with γ-counter (1480 WIZARD™ 3″). Following weight and decay correction of tissue counts, the heart to blood (H/B) and heart to liver (H/L) count ratio were calculated, respectively. For autoradiography, the rats were first injected via tail vein either with or without (control) NET blocker phenoxynezamine 50 mg/kg after anaesthesia. After 10 min, the tracer (10-20 MBq) was administered. The hearts were harvested 10 min later, frozen, and cut into 20 μm short axis slices using a cryostat (Cryotome FSE, Thermo Fisher Scientific). To obtain the distribution of the tracer, autoradiography plates (Fuji SR-type image plate, Fujifilm Corporation, Tokyo, Japan) were exposed to the short axis slices immediately for 18 h and thereafter imaged using a digital autoradiographic system (Typhoon FLA 7000).
The columns are the mean value of 2 rats. Data were determined 10 min post injection. Y-axis represents the heart/tissue distribution ratio. […] In comparison, according to Raffel, D. et al., J. Nucl. Med. 2017, 58 (Suppl 1): 96 MHPG and PHPG show tissue concentration ratios at a time frame of 50-60 min imaging as follows: MHPG with H/B 3.6 and H/L 2.3; PHPG with 5.4 and 1.1, respectively.

[10] = Biodistribution study (SUV) in monkey; assay type: in vivo
Description: A further biodistribution study with ^18F-AF78 in monkey has been conducted. […] The liver uptake is decreasing and is lower than cardiac uptake 35 min after tracer administration.

[11] = test system: NET; experiment: Dynamic PET time-activity curves in Cynomolgus monkey with and without DMI pretreatment; assay type: in vivo
Description: For control, Cynomolgus monkey (male, 5.3 kg) was maintained anaesthetized during the imaging study using 3.3% seboflurane. Shortly before receiving an intravenous injection of the tracer (44 MBq), a 120 min dynamic PET session was started. In addition, to investigate the inhibition of cardiac neuronal uptake-1, DMI (1 mg/kg, iv.) was injected to Cynomolgus monkey (female, 5.6 kg) 10 min before the tracer (18.2 MBq) injection and PET assessment started. PET was conducted using a PCA-2000A positron scanner (Toshiba Medical Systems Corporation, Otawara, Japan). Sinograms were collected with the following pattern: 10 sec×12, 30 sec×6, 300 sec×23. The tissue uptake was determined as arbitrary unit (A.U.), from which a time-activity curves of different organs were generated.
A tissue bio-distribution consistent with that observed in rat could be observed with clear long term and stable cardiac uptake during the total 120 min scan whereas uptake in adjacent liver and lungs was low. Representative time activity curves derived from ^18F-AF78 dynamic images in control and sympathetic nerve blocked monkey were generated from the scanning data. […] In the control, activity in the liver reached a peak a little while after the tracer injection, then decreased slowly to blood level after 60 min.

[12] = 10 min post injection, control, mean of 2 rats
[13] = PhB 50 mg/kg 10 min before tracer, 10 min post injection

T1 sequence (P23975 whole entry): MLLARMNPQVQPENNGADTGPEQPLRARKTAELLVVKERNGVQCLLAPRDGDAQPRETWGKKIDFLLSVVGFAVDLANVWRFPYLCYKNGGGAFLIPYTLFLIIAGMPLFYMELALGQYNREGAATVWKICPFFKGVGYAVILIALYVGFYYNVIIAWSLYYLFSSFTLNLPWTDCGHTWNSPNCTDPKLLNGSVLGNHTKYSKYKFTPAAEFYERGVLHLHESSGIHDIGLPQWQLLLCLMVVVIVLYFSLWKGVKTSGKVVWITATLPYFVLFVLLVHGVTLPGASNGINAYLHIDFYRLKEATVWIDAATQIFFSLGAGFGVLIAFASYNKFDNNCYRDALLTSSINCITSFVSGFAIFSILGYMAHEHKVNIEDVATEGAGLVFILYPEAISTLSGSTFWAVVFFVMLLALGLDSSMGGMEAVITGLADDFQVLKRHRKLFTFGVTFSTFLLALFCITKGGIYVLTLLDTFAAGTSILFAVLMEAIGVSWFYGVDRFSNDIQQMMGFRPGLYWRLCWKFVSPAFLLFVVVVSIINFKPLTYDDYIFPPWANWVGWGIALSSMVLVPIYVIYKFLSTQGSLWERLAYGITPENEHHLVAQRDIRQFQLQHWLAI

With `N=C(N)NCCc1ccc(F)c(OCCCF)c1` [cold reference 1] the inhibition at 100 µM ([1]; at 100 μM (highest concentration tested)) was 40%.

In the case of “^18F-4-fluoro-3-hydroxyphenethylguanidine [MHPG]”, the IC50 [1] is given as 6800 ± 730 nM, the “H/B tissue concentration ratio” value [2] is given as 3.6 and the “H/L tissue concentration ratio” value [2] is given as 2.3. It also gave an IC50 [3] of 850 ± 630 nM.

For `N=C(N)NCCc1ccc(O)c([18F])c1` [PHPG, ^18F-3-fluoro-4-hydroxyphenethylguanidine], the “H/B tissue concentration ratio” value [2] is listed as 5.4 and the “H/L tissue concentration ratio” value [2] is listed as 1.1.

Compound `N=C(N)NCCc1ccc(OCCCF)c(F)c1` [AF78] has an IC50 [1] of 2570 ± 1370 nM and an IC50 [3] of 2680 ± 830 nM.

For `NC(N)=NCCc1ccc(OCCC[18F])c(F)c1` [^18F-AF78], the “Cardiac tracer uptake with DMI chase vs control” value ([4]; DMI injected 10 min after tracer) was “no difference can be seen compared to control group”, the “Cardiac tracer uptake with DMI blocking vs control” value ([4]; DMI injected 10 min before tracer) was “specifically blocked the tracer uptake with significant difference” and the “Cardiac tracer uptake with tyramine chase vs control” value ([4]; continuous tyramine chase after tracer) was “decreased considerable”. For the same compound, the “Tracer distribution in myocardium (autoradiography)” value ([5]; rat LVSA slices, control) was “homogeneous tracer uptake throughout the left ventricular walls”, the “Tracer distribution after PhB pretreatment (autoradiography)” value ([5]; rat, PhB 50 mg/kg i.v. 10 min before tracer) was “could be inhibited by a pretreatment with phenoxybenzamine” and the “Myocardial tracer uptake after NET blockade, static PET images” value ([6]; PhB 50 mg/kg iv 10 min before tracer) was “significantly decreased the myocardial tracer uptake”. For the same compound, the “Myocardial tracer uptake, static PET images” value ([6]; no pretreatment) was “homogeneous and clear tracer uptake throughout the left ventricular wall”, the “Cardiac uptake in static PET images across species” value [7] was “works in all of these species” and the “Tracer uptake inhibited by the addition of DMI” value [8] was 94%. The “Heart-to-Blood (H/B) ratio” value [9, 12] was 12.54, the “Heart-to-Liver (H/L) ratio” value [9, 12] was 6.14 and the “Decline in the H/B ratio by PhB” value ([9]; PhB 50 mg/kg) was “approximately 6 fold”. For the same compound, the “Decline in the H/L ratio by PhB” value ([9]; PhB 50 mg/kg) was about 5 fold, the “Heart-to-Blood (H/B) ratio after NET blockade” value [9, 13] was 2.41 and the “Heart-to-Liver (H/L) ratio after NET blockade” value [9, 13] was 1.30. The “Biodistribution (SUV) result” value [10] was “stable cardiac uptake along with fast blood pool washout and relative fast liver uptake washout”, the “Time after tracer administration at which liver uptake is lower than cardiac uptake” value [10] was 35 min and the “Time after which liver activity decreased to blood level” value ([11]; control monkey) was 60 min. For the same compound, the “Cardiac uptake over scan time” value ([11]; control monkey, 120 min dynamic PET) was “maintained activity throughout the entire 120 min scan time”, the “Liver uptake after DMI pretreatment” value ([11]; monkey, DMI 1 mg/kg iv) was “not affected by pretreatment with DMI” and the “Heart uptake after DMI pretreatment” value ([11]; monkey, DMI 1 mg/kg iv 10 min before tracer) was “markedly reduced the heart uptake level”.

In the case of `N=C(N)NCc1cccc([131I])c1` [^131I-MIBG, ^123/131I-meta-iodobenzylguanidine, reference compound], the “Tracer uptake inhibited by the addition of DMI” value [8] is reported as 87%.
